Test results published in patent US20230277569A1, “Compositions and Methods for Treating, Ameliorating and/or Preventing Cancer and Kits for the Same” (priority 2022, published 2023).

Assay: Phase I, cytochrome P450-mediated human liver microsome metabolism
Settings: 0.5 μM; human liver microsomes

SMILES: Cc1ncc2n1-c1ccc(Cl)cc1C(c1ccccc1F)=NC2 [Midazolam, reference compound]
- elimination rate constant (k): 0.04
- intrinsic clearance (CLint): 3.23 mL/min/g
